Measurements: article PMC5585256 (Scientific Reports, 2017)
Marks after values point to notes of the source that are not given here.

Legend:
Format in all cases: biochemical
[1] = target: T1, WT hBChE (human plasma-derived butyrylcholinesterase) (Homo sapiens, UniProt P06276); assay: Inhibition of BTC hydrolysis activity of WT hBChE; conditions: for Fold increase in sensitivity relative to WT pBChE: WT hBChE vs WT pBChE
T1 construct: we first compared WT human plasma-derived (hBChE) to pBChE; from tissue; host or cells: human plasma
Procedure: (§1) To this end, BTC hydrolysis was analyzed following a 30-minute incubation with the inhibitors.
(§2) The four inhibitors were purchased from Sigma (St Louis, MO).
(§3) Preparations of BChE and variants thereof were incubated in 96-well plate format with indicated concentrations of the inhibitors for 30 min at room temperature followed by activity measurements based on modified Ellman assay using 1 mM BTC as the substrate. IC50 values were determined by non-linear regression (GraphPad Prism) fit according to Equation (4).

[2] = target: T2, WT pBChE (plant-derived human butyrylcholinesterase) (Homo sapiens, UniProt P06276); assay: Inhibition of BTC hydrolysis activity of WT pBChE; conditions: for Fold increase in sensitivity relative to WT pBChE: WT pBChE (reference)
T2 construct: barley alpha-amylase signal peptide (N); made in house; host or cells: Nicotiana benthamiana (transient, MagnICON/TMV vector, Agrobacterium infiltration)
Procedure: as §1, §2, §3

[3] = target: T3, pBChEV2 (F227A/S287G/A328W/Y332A) (Homo sapiens, UniProt P06276, A356W/F255A/S315G/Y360A); assay: Inhibition of BTC hydrolysis activity of pBChEV2; conditions: for Fold increase in sensitivity relative to WT pBChE: pBChEV2 vs WT pBChE
T3 construct: hexahistidine (C); barley alpha-amylase signal peptide (N); made in house; host or cells: Nicotiana benthamiana (transient, MagnICON/TMV vector)
T3 sequence (P06276 29-602 F255A/S315G/A356W/Y360A): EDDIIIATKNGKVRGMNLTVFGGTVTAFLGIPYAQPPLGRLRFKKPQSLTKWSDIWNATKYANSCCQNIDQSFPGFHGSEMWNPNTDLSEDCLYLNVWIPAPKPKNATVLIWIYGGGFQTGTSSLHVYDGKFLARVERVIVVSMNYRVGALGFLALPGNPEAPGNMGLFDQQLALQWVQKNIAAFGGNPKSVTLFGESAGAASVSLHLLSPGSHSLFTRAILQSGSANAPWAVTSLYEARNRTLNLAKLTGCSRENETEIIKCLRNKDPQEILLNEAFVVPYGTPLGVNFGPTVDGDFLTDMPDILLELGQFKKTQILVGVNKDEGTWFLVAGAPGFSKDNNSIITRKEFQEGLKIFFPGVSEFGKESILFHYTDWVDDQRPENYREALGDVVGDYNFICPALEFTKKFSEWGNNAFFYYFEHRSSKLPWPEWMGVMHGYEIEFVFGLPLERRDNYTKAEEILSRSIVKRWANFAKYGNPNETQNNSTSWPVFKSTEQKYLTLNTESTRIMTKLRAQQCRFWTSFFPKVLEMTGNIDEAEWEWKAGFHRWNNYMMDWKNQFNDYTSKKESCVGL
Procedure: as §1, §2, §3

[4] = target: T4, pBChEV3 (A199S/S287G/A328W/Y332G) (Homo sapiens, UniProt P06276, A227S/A356W/S315G/Y360G); assay: Inhibition of BTC hydrolysis activity of pBChEV3; conditions: for Fold increase in sensitivity relative to WT pBChE: pBChEV3 vs WT pBChE
T4 construct: hexahistidine (C); barley alpha-amylase signal peptide (N); made in house; host or cells: Nicotiana benthamiana (transient, MagnICON/TMV vector)
T4 sequence (P06276 29-602 A227S/S315G/A356W/Y360G): as the sequence (P06276 29-602 F255A/S315G/A356W/Y360A) above, with A199S, A227F, A332G counted along it
Procedure: as §1, §2, §3

[5] = target: T5, pBChEV4 (A199S/F227A/S287G/A328W/Y332G) (Homo sapiens, UniProt P06276, A227S/A356W/F255A/S315G/Y360G); assay: Inhibition of BTC hydrolysis activity of pBChEV4; conditions: for Fold increase in sensitivity relative to WT pBChE: pBChEV4 vs WT pBChE
T5 construct: hexahistidine (C); barley alpha-amylase signal peptide (N); made in house; host or cells: Nicotiana benthamiana (transient, MagnICON/TMV vector)
T5 sequence (P06276 29-602 A227S/F255A/S315G/A356W/Y360G): as the sequence (P06276 29-602 F255A/S315G/A356W/Y360A) above, with A199S, A332G counted along it
Procedure: as §1, §2, §3

[6] = target: T6, pBChEV5 (F227A/S287G/A328W/Y332G) (Homo sapiens, UniProt P06276, A356W/F255A/S315G/Y360G); assay: Inhibition of BTC hydrolysis activity of pBChEV5; conditions: for Fold increase in sensitivity relative to WT pBChE: pBChEV5 vs WT pBChE
T6 construct: hexahistidine (C); barley alpha-amylase signal peptide (N); made in house; host or cells: Nicotiana benthamiana (transient, MagnICON/TMV vector)
T6 sequence (P06276 29-602 F255A/S315G/A356W/Y360G): as the sequence (P06276 29-602 F255A/S315G/A356W/Y360A) above, with A332G counted along it
Procedure: as §1, §2, §3

[7] = target: T7, WT pBChE (Homo sapiens, UniProt P06276); assay: Inhibition rate constant for paraoxon, WT pBChE; conditions: enzyme WT pBChE
T7 construct: barley alpha-amylase signal peptide (N); made in house; host or cells: Nicotiana benthamiana (transient, MagnICON/TMV vector, Agrobacterium infiltration)

[8] = target: T8, pBChEV4 (Homo sapiens, UniProt P06276, A227S/A356W/F255A/S315G/Y360G); assay: Inhibition rate constant for paraoxon, pBChEV4; conditions: enzyme pBChEV4
T8 construct: hexahistidine (C); barley alpha-amylase signal peptide (N); made in house; host or cells: Nicotiana benthamiana (transient, MagnICON/TMV vector)
T8 sequence (P06276 29-602 A227S/F255A/S315G/A356W/Y360G): as the sequence (P06276 29-602 F255A/S315G/A356W/Y360A) above, with A199S, A332G counted along it

[9] = Radiometric (−)-cocaine hydrolysis assay; conditions: substrate (−)-cocaine

Q: Which IC50 [1] does the source give for CN(C)C(=O)Oc1cccc([N+](C)(C)C)c1 [Neostigmine, [3-(dimethylcarbamoyloxy)phenyl]-trimethylazanium;bromide] here?
A: Its IC50 is 0.162 µM.

Q: What about the “Fold increase in sensitivity relative to WT pBChE” value [1] of the same molecule?
A: The value was “(1)^**** fold”.

Q: What about the IC50 [2] of the same molecule?
A: Its IC50 is 0.229 µM.

Q: What about the “Fold increase in sensitivity relative to WT pBChE” value [2] of the same molecule?
A: The value was “(1) fold”.

Q: And the IC50 [3]?
A: The IC50 was 0.0178 µM.

Q: What about the “Fold increase in sensitivity relative to WT pBChE” value [3] of the same molecule?
A: Its value is “(13)^**** fold”.

Q: And the “Fold increase in sensitivity relative to WT pBChE” value ([3]; listed as neostigmine)?
A: The value was 10–20 fold.

Q: And the IC50 [4]?
A: The IC50 was 0.204 µM.

Q: And the “Fold increase in sensitivity relative to WT pBChE” value [4]?
A: The value was “(1) fold”.

Q: And the “Fold increase in sensitivity relative to WT pBChE” value ([4]; listed as neostigmine)?
A: Its value is “near WT levels”.

Q: What about the IC50 [5] of the same molecule?
A: Its IC50 is 0.155 µM.

Q: And the “Fold increase in sensitivity relative to WT pBChE” value [5]?
A: Its value is “(1)^**** fold”.

Q: And the “Fold increase in sensitivity relative to WT pBChE” value ([5]; listed as neostigmine)?
A: Its value is “near WT levels”.

Q: What about the IC50 [6] of the same molecule?
A: Its IC50 is 0.0132 µM.

Q: And the “Fold increase in sensitivity relative to WT pBChE” value [6]?
A: Its value is “(17)^**** fold”.

Q: And the “Fold increase in sensitivity relative to WT pBChE” value ([6]; listed as neostigmine)?
A: Its value is 10–20 fold.

Q: What does the source list for CCOP(=O)(OCC)Oc1ccc([N+](=O)[O-])cc1 [Paraoxon, diethyl (4-nitrophenyl) phosphate]?
A: Fold increase in sensitivity relative to WT pBChE [1]: (0.9) fold; Fold increase in sensitivity relative to WT pBChE [2]: (1) fold; Fold increase in sensitivity relative to WT pBChE [3]: (38)^**** fold; Fold increase in sensitivity relative to WT pBChE ([3]; listed as paraoxon): 40–50 fold; Fold increase in sensitivity relative to WT pBChE [4]: (3)^**** fold; Fold increase in sensitivity relative to WT pBChE ([4]; listed as paraoxon): 3–7 fold; Fold increase in sensitivity relative to WT pBChE [5]: (6)^**** fold; Fold increase in sensitivity relative to WT pBChE ([5]; listed as paraoxon): 3–7 fold; Fold increase in sensitivity relative to WT pBChE [6]: (46)^**** fold; Fold increase in sensitivity relative to WT pBChE ([6]; listed as paraoxon): 40–50 fold; inhibition rate constant (ki) [7]: 52300 M⁻¹ s⁻¹; inhibition rate constant (ki) [8]: 283000 M⁻¹ s⁻¹

B1: WT pBChE (protein, UniProt P06276 29-602, looked up)
Cholinesterase: EDDIIIATKNGKVRGMNLTVFGGTVTAFLGIPYAQPPLGRLRFKKPQSLTKWSDIWNATKYANSCCQNIDQSFPGFHGSEMWNPNTDLSEDCLYLNVWIPAPKPKNATVLIWIYGGGFQTGTSSLHVYDGKFLARVERVIVVSMNYRVGALGFLALPGNPEAPGNMGLFDQQLALQWVQKNIAAFGGNPKSVTLFGESAGAASVSLHLLSPGSHSLFTRAILQSGSFNAPWAVTSLYEARNRTLNLAKLTGCSRENETEIIKCLRNKDPQEILLNEAFVVPYGTPLSVNFGPTVDGDFLTDMPDILLELGQFKKTQILVGVNKDEGTAFLVYGAPGFSKDNNSIITRKEFQEGLKIFFPGVSEFGKESILFHYTDWVDDQRPENYREALGDVVGDYNFICPALEFTKKFSEWGNNAFFYYFEHRSSKLPWPEWMGVMHGYEIEFVFGLPLERRDNYTKAEEILSRSIVKRWANFAKYGNPNETQNNSTSWPVFKSTEQKYLTLNTESTRIMTKLRAQQCRFWTSFFPKVLEMTGNIDEAEWEWKAGFHRWNNYMMDWKNQFNDYTSKKESCVGL
modifications: plant-expressed
Q: For B1, which k cat [9] is on record?
A: The k cat was 0.0433 s⁻¹.
